This note sets out measurements from patent US10414811B2, “Protease-resistant lipidated GLP-1 analogs” (MEDIMMUNE LIMITED, priority 2015, dated 2019).

What all share (type): cell-based
The target of experiment [1] is T1, human glucagon receptor (GCGR) (Homo sapiens, UniProt P47871).
T1 construct: expressed in transfected cells
Put plainly: cAMP assay, human GCGR cells. On the procedure: (§1) Sample dilutions are made in duplicate.
(§2) A frozen cryo-vial of cells expressing the receptor of interest is thawed rapidly in a water-bath, transferred to pre-warmed assay buffer and spun at 240×g for 5 minutes. Cells are re-suspended in assay buffer at a batch-dependent optimized concentration (e.g. hGCGR cells at 2×10^5 cells/ml, hGLP-1R and hGIPR cells at 1×10^5 cells/ml).
(§3) To this, 5 μL cell suspension is added and the plates incubated at room temperature for 30 minutes.
(§4) cAMP levels are measured using a commercially available cAMP dynamic 2 HTRF kit (Cisbio, Cat #62AM4PEJ), following the two step protocol as per manufacturer's recommendations. In brief; anti-cAMP cryptate (donor fluorophore) and cAMP-d2 (acceptor fluorophore) are made up separately by diluting each 1/20 in conjugate & lysis buffer provided in the kit. 5 μL anti-cAMP cryptate is added to wells of the assay plate, and 5 μL cAMP-d2 is added to wells except non-specific binding (NSB) wells, to which conjugate and lysis buffer are added. […] EC50 values of the synthetic peptides determined in cAMP assays are then determined.
(§5) Data is transformed to % Delta F as described in the manufacturer's guidelines and analyzed by 4-parameter logistic fit to determine EC50 values. […] To compare the balance of activities at the GLP-1R and GCGR between different peptides and across different conditions, these can be correlated, where the EC50's are related to those of comparator peptides.
(Changes in cAMP serve as a functional read-out for many G protein-coupled receptors.)

Experiment [2] addresses T2, human glucose-dependent insulinotropic peptide receptor (GIPR) (Homo sapiens, UniProt P48546).
T2 construct: expressed in transfected cells
T2 sequence (P48546 22-466): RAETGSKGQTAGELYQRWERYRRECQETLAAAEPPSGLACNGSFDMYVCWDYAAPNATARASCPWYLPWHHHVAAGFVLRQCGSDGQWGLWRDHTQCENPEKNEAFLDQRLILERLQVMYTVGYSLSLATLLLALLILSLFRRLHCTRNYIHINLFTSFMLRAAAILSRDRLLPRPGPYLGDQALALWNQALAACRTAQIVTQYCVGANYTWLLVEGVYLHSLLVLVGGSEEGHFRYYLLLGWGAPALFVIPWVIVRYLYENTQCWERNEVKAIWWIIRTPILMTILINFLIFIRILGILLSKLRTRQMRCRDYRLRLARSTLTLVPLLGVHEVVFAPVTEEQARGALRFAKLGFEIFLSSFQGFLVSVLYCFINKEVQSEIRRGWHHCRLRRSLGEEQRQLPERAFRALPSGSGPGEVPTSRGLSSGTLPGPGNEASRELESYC
As to the kind of experiment: cAMP assay, human GIPR cells. The method, then: as §1, §2, §3, §4, §5

Experiment [3] concerns the target T3, human GLP-1 receptor (GLP-1R) (Homo sapiens, UniProt P43220).
T3 construct: expressed in transfected cells
As to the kind of experiment: cAMP assay, human GLP-1R cells. The conditions noted are these: bis-lipidated peptides. On the procedure:
as §1, §2, §3, §4, §5

Where [4] appears, read: cAMP assay, first determination (n1), read-out: Primary assay EC50 Gluc-R (n1).
[5] abbreviates: cAMP assay, second determination (n2), read-out: Primary assay EC50 Gluc-R (n2).
The mark [6] stands for this setting: cAMP assay, first determination (n1), read-out: Primary assay EC50 GIP-R (n1).
[7] abbreviates: cAMP assay, second determination (n2), read-out: Primary assay EC50 GIP-R (n2).
[8] abbreviates: mean of n1 and n2, read-out: Primary assay EC50 Mean pM GLP-1R.
Where [9] appears, read: replicate n1, read-out: Primary assay EC50 GLP-1R n1.
The mark [10] stands for this setting: replicate n2, read-out: Primary assay EC50 GLP-1R n2.

Read-outs that look alike come from different tables or passages of the source. Numbered stars: 1 amine (or outer) side, 2 acyl side, 3 side chain; on linkers, the order of the positions; unused ones are H or OH. Square brackets hold non-standard residues; d marks the D form. Side chains are listed from the residue outwards. Peptide text beside a SMILES is read from it. * marks the point of attachment. γGlu = O=C(O)[C@H](CCC(=O)[*:2])N[*:1]; αMeF = C[C@](N)(Cc1ccccc1)C(=O)O; αMeK = C[C@](N)(CCCCN)C(=O)O; Lauroyl = CCCCCCCCCCCC(=O)*; AEEA = NCCOCCOCC(=O)O; Aib = CC(C)(N)C(=O)O

T3 sequence (P43220 24-463): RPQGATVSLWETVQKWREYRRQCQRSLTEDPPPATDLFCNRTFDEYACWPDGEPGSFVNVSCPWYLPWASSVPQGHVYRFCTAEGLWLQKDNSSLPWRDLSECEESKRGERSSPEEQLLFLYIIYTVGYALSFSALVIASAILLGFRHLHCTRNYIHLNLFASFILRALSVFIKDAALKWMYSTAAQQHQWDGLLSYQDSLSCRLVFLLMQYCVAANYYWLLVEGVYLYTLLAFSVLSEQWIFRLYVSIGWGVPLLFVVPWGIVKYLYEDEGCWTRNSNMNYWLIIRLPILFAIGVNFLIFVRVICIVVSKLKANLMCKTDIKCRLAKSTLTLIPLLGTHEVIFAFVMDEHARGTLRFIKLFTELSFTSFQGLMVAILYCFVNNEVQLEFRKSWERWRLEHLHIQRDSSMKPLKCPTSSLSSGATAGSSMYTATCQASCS
T1 sequence (P47871 26-477): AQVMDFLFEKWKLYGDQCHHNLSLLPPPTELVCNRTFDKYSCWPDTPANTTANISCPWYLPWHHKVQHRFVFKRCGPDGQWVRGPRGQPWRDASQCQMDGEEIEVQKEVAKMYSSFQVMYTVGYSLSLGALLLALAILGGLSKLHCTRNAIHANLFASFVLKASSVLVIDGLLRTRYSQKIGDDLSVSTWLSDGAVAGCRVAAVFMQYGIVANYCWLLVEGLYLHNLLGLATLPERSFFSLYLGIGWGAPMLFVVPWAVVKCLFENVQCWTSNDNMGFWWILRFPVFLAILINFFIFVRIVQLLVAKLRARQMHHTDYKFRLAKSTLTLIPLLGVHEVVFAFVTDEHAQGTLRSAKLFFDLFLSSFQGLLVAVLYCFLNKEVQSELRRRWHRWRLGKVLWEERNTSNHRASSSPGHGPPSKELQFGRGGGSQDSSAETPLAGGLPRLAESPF

Regarding `CCCCCCCCCCCC(=O)N[C@@H](CCC(=O)NCCOCCOCC(=O)NCCOCCOCC(=O)NCCCC[C@H](NC(=O)[C@H](CC(=O)O)NC(=O)[C@H](CO)NC(=O)[C@@H](NC(=O)[C@](C)(Cc1ccccc1)NC(=O)[C@H](CO)NC(=O)CNC(=O)[C@H](CCC(=O)O)NC(=O)C(C)(C)NC(=O)[C@@H](N)Cc1c[nH]cn1)[C@@H](C)O)C(=O)N[C@@H](CO)C(=O)N[C@@H](CO)C(=O)N[C@@H](Cc1ccc(O)cc1)C(=O)N[C@@H](CC(C)C)C(=O)N[C@@H](CCC(=O)O)C(=O)NCC(=O)N[C@@H](CCC(=O)O)C(=O)N[C@@H](C)C(=O)N[C@@H](C)C(=O)N[C@@](C)(CCCCN)C(=O)N[C@@H](CCCCNC(=O)COCCOCCNC(=O)COCCOCCNC(=O)CC[C@H](NC(=O)CCCCCCCCCCC)C(=O)O)C(=O)N[C@@H](Cc1ccccc1)C(=O)N[C@H](C(=O)N[C@@H](C)C(=O)N[C@@H](Cc1ccccc1)C(=O)N[C@@H](CCCCNC(=O)COCCOCCNC(=O)COCCOCCNC(=O)CC[C@H](NC(=O)CCCCCCCCCCC)C(=O)O)C(=O)N[C@H](C(=O)N[C@@H](CCC(=O)O)C(=O)NCC(=O)NCC(N)=O)C(C)C)[C@@H](C)CC)C(=O)O` [compound 474] (H-H[Aib]EGS[αMeF]TSDK([AEEA-AEEA-γGlu-Lauroyl])SSYLEGEAA[αMeK]K([AEEA-AEEA-γGlu-Lauroyl])FIAFK([AEEA-AEEA-γGlu-Lauroyl])VEGG-NH2; N-terminus assumed), the EC50 amounted to 19.9 nM in experiment [1] (tris-lipidated peptides, second replicate, read-out: Primary assay EC50 Gluc-R (n2)) and 19.9 nM in experiment [2] (tris-lipidated peptides, first replicate, read-out: Primary assay EC50 GIP-R (n1)).

In the case of `CC(C)[C@H](NC(=O)[C@H](CCC(=O)O)NC(=O)[C@H](CO)NC(=O)[C@H](CO)NC(=O)[C@](C)(Cc1ccccc1)NC(=O)[C@H](CO)NC(=O)CNC(=O)[C@H](CCC(=O)O)NC(=O)C(C)(C)NC(=O)[C@@H](N)Cc1c[nH]cn1)C(=O)N[C@@H](CO)C(=O)N[C@@H](CO)C(=O)N[C@@](C)(Cc1ccccc1)C(=O)N[C@H](C(=O)N[C@@H](CCC(=O)O)C(=O)NCC(=O)N[C@@H](CCC(=O)O)C(=O)N[C@@H](C)C(=O)N[C@@H](C)C(=O)N[C@@](C)(CCCCN)C(=O)N[C@@H](CCC(=O)O)C(=O)N[C@@](C)(Cc1ccccc1)C(=O)N[C@H](C(=O)N[C@@H](C)C(=O)N[C@@](C)(Cc1ccccc1)C(=O)N[C@H](C(=O)N[C@H](C(=O)N[C@@](C)(CCCCN)C(=O)NCC(=O)NCC(N)=O)C(C)C)C(C)C)C(C)C)C(C)C` [compound 12] (H-H[Aib]EGS[αMeF]SSEVSS[αMeF]VEGEAA[αMeK]E[αMeF]VA[αMeF]VV[αMeK]GG-NH2), the EC50 in experiment [1] (setting [4]) was determined as 10 nM; in experiment [1] (setting [5]), 13 nM; in experiment [2] (setting [6]), 45 nM; in experiment [2] (setting [7]), 45 nM.

Turning to `CCCCCCCCCCCC(=O)N[C@@H](CCC(=O)N[C@@H](CCC(=O)NCCCC[C@H](NC(=O)[C@H](C)NC(=O)[C@H](C)NC(=O)[C@H](CCC(=O)O)NC(=O)CNC(=O)[C@H](CCC(=O)O)NC(=O)[C@H](CC(C)C)NC(=O)[C@](C)(Cc1ccccc1)NC(=O)[C@H](CO)NC(=O)[C@](C)(CO)NC(=O)[C@@H](NC(=O)[C@H](CC(=O)O)NC(=O)[C@H](CO)NC(=O)[C@@H](NC(=O)[C@](C)(Cc1ccccc1)NC(=O)[C@H](CO)NC(=O)CNC(=O)[C@H](CCC(=O)O)NC(=O)C(C)(C)NC(=O)[C@@H](N)Cc1c[nH]cn1)[C@@H](C)O)C(C)C)C(=O)N[C@@H](CCC(=O)O)C(=O)N[C@@](C)(Cc1ccccc1)C(=O)N[C@H](C(=O)N[C@@H](C)C(=O)N[C@@](C)(Cc1ccccc1)C(=O)N[C@H](C(=O)N[C@H](C(=O)N[C@@](C)(CCCCN)C(=O)NCC(=O)NCC(N)=O)C(C)C)C(C)C)[C@@H](C)CC)C(=O)O)C(=O)O` [compound 129], the EC50 in experiment [1] (setting [4]), in experiment [1] (setting [5]), in experiment [2] (setting [6]) and in experiment [2] (setting [7]) was no less than 27 nM in each case.

As for `CC[C@H](C)[C@H](NC(=O)[C@H](Cc1ccccc1)NC(=O)[C@H](CCC(=O)O)NC(=O)[C@H](CCCCN)NC(=O)[C@H](C)NC(=O)[C@H](C)NC(=O)[C@H](CCC(N)=O)NC(=O)CNC(=O)[C@H](CCC(=O)O)NC(=O)[C@H](CC(C)C)NC(=O)[C@H](Cc1ccc(O)cc1)NC(=O)[C@H](CO)NC(=O)[C@](C)(CO)NC(=O)[C@@H](NC(=O)[C@H](CC(=O)O)NC(=O)[C@](C)(CO)NC(=O)[C@@H](NC(=O)[C@H](Cc1ccccc1)NC(=O)[C@@H](NC(=O)CNC(=O)[C@H](CCC(=O)O)NC(=O)C(C)(C)NC(=O)[C@@H](N)Cc1c[nH]cn1)[C@@H](C)O)[C@@H](C)O)C(C)C)C(=O)N[C@@H](C)C(=O)N[C@@H](Cc1c[nH]c2ccccc12)C(=O)N[C@@H](CC(C)C)C(=O)N[C@H](C(=O)N[C@@H](CCCCN)C(=O)NCC(=O)N[C@@H](CCCNC(=N)N)C(N)=O)C(C)C` [compound 23], the EC50 in experiment [1] (setting [4]), in experiment [1] (setting [5]), in experiment [2] (setting [6]) and in experiment [2] (setting [7]) was no less than 540 nM in each case.

With `CCCCCCCCCCCC(=O)N[C@@H](CCC(=O)NCCOCCOCC(=O)NCCOCCOCC(=O)NCCCC[C@H](NC(=O)[C@H](CC(=O)O)NC(=O)[C@H](CO)NC(=O)[C@@H](NC(=O)[C@](C)(Cc1ccccc1)NC(=O)[C@H](CO)NC(=O)CNC(=O)[C@H](CCC(=O)O)NC(=O)C(C)(C)NC(=O)[C@@H](N)Cc1c[nH]cn1)[C@@H](C)O)C(=O)N[C@@H](CO)C(=O)N[C@@H](CO)C(=O)N[C@@H](Cc1ccc(O)cc1)C(=O)N[C@@H](CC(C)C)C(=O)N[C@@H](CCC(=O)O)C(=O)NCC(=O)N[C@@H](CCC(=O)O)C(=O)N[C@@H](C)C(=O)N[C@@H](C)C(=O)N[C@@](C)(CCCCN)C(=O)N[C@@H](CCC(=O)O)C(=O)N[C@@H](Cc1ccccc1)C(=O)N[C@H](C(=O)N[C@@H](C)C(=O)N[C@@H](Cc1c[nH]c2ccccc12)C(=O)N[C@@H](CCCCNC(=O)COCCOCCNC(=O)COCCOCCNC(=O)CC[C@H](NC(=O)CCCCCCCCCCC)C(=O)O)C(=O)N[C@H](C(=O)N[C@@H](CCC(=O)O)C(=O)NCC(=O)NCC(N)=O)C(C)C)[C@@H](C)CC)C(=O)O` [compound 258] (H-H[Aib]EGS[αMeF]TSDK([AEEA-AEEA-γGlu-Lauroyl])SSYLEGEAA[αMeK]EFIAWK([AEEA-AEEA-γGlu-Lauroyl])VEGG-NH2; N-terminus assumed), the EC50 in experiment [3] (setting [8]) came out at 92.3 pM; in experiment [3] (setting [9]), 59.6 pM; in experiment [3] (setting [10]) it was 125 pM.

As for `CCCCCCCCCCCC(=O)N[C@@H](CCC(=O)NCCOCCOCC(=O)NCCOCCOCC(=O)NCCCC[C@H](NC(=O)[C@H](CC(=O)O)NC(=O)[C@H](CO)NC(=O)[C@@H](NC(=O)[C@](C)(Cc1ccccc1)NC(=O)[C@H](CO)NC(=O)CNC(=O)[C@H](CCC(=O)O)NC(=O)C(C)(C)NC(=O)[C@@H](N)Cc1c[nH]cn1)[C@@H](C)O)C(=O)N[C@@H](CO)C(=O)N[C@@H](CO)C(=O)N[C@@H](Cc1ccc(O)cc1)C(=O)N[C@@H](CC(C)C)C(=O)N[C@@H](CCC(=O)O)C(=O)NCC(=O)N[C@@H](CCC(=O)O)C(=O)N[C@@H](C)C(=O)N[C@@H](C)C(=O)N[C@@](C)(CCCCN)C(=O)N[C@@H](CCC(=O)O)C(=O)N[C@@H](Cc1ccccc1)C(=O)N[C@H](C(=O)N[C@@H](CCCCNC(=O)COCCOCCNC(=O)COCCOCCNC(=O)CC[C@H](NC(=O)CCCCCCCCCCC)C(=O)O)C(=O)N[C@@H](Cc1c[nH]c2ccccc12)C(=O)N[C@H](C(=O)N[C@H](C(=O)N[C@@H](CCC(=O)O)C(=O)NCC(=O)NCC(N)=O)C(C)C)C(C)C)[C@@H](C)CC)C(=O)O` [compound 256] (H-H[Aib]EGS[αMeF]TSDK([AEEA-AEEA-γGlu-Lauroyl])SSYLEGEAA[αMeK]EFIK([AEEA-AEEA-γGlu-Lauroyl])WVVEGG-NH2), the EC50 was 7.5 pM in experiment [3] (setting [8]), 9.46 pM in experiment [3] (setting [9]) and 5.57 pM in experiment [3] (setting [10]).

As a reminder, the EC50 is the concentration that produces a half-maximal response.
